Data on 4 compounds can be found in patent US8889705B2, “Noscapine analogs and their use in treating cancers” (Emory University, priority 2007, dated 2014).

The test system of one data set is CEM/VLB100 cells. As to conditions: CEM/VLB100 (Beck and Cirtain, 1982); cited from earlier work.
Data set [1] concerns MDA-MB-231 cells. The data set is described as follows: Sulforhodamine B cell proliferation assay. Format: cell-based. Conditions: Homo sapiens; MDA-MB-231, 72 hours, SRB. As to the method:
(§1) Sulforhodamine B (SRB) assay: The cell proliferation assay was performed in 96-well plates as described previously. Adherent cells (MCF-7 and MDA-MB-231) were seeded in 96-well plates at a density of 5×10^3 cells per well. They were treated with increasing concentrations of the halogenated analogs the next day while in log-phase growth. After 72 hours of drug treatment, cells were fixed with 50% trichloroacetic acid and stained with 0.4% sulforhodamine B dissolved in 1% acetic acid. After 30 minutes, cells were then washed with 1% acetic acid to remove the unbound dye. The protein-bound dye was extracted with 10 mM Tris base to determine the optical density at 564-nm wavelength.

Data set [2] deals with MCF-7 cells. Nature of the data set: Sulforhodamine B cell proliferation assay. Format: cell-based, human. Conditions: for IC50: Homo sapiens, MCF7, 72 h, MCF-7, 72 hours, SRB. As to the method:
as §1

Data set [3] has as its system MCF-7 cells. Nature of the data set: Cell cycle analysis (propidium iodide, flow cytometry). The format is cell-based, human. Conditions: for G0/G1 / G2/M / S / Sub-G1: MCF-7, 25 μM, mean ± S.E.M. As to the method: The flow cytometric evaluation of the cell cycle status was performed as described previously. Briefly, 2×10^6 cells were centrifuged, washed twice with ice-cold PBS, and fixed in 70% ethanol. Tubes containing the cell pellets were stored at 4° C. for at least 24 hours. Cells were then centrifuged at 1000×g for 10 min and the supernatant was discarded. The pellets were washed twice with 5 ml of PBS and then stained with 0.5 ml of propidium iodide (0.1% in 0.6% Triton-X in PBS) and 0.5 ml of RNase A (2 mg/ml) for 45 minutes in dark. Samples were then analyzed on a FACSCalibur flow cytometer (Beckman Coulter Inc., Fullerton, Calif.).
On the technique in general: In flow cytometry, cells or beads pass a laser one at a time.

In data set [4] the target is T1, tubulin.
T1 construct: other: 2 μM tubulin, 45 min at 37° C., double reciprocal plot; rate and extent of tubulin polymerization; other: 25 μM or 100 μM
Conditions: values with literature reference [18], [12], [43]; read-out: dissociation constant (Kd) for binding to tubulin; cited from earlier work.

Data set [5] concerns tubulin. As to conditions: even at 100 μM (Zhou et al., 2003); cited from earlier work.
The subject of another data set is CEM cells. The data set is described as follows: In vitro cell proliferation MTS assay. The format is cell-based. Conditions: Homo sapiens, CCRF-CEM, 72 hours. The procedure:
(§2) Suspension cells (CEM, CEMNLB100 and CEM/VM-1-5) were cultured in RPMI-1640 media containing 10% FBS and then seeded into 96-well plates at a density of 5×10^3 cells per well and were treated with increasing gradient concentrations of 9-nitro-nos for 72 hours. Measurement of cell proliferation was performed colorimetrically by 3-(4,5-dimethylthiazol-2-yl)-5-(3-carboxymethoxyphenyl)-2-(4-sulphophenyl)-2H-tetrazolium, inner salt (MTS) assay, using the CellTiter96 AQueous One Solution Reagent (Promega, Madison, Wis.). Cells were exposed to MTS for 3 hours and absorbance was measured using a microplate reader (Molecular Devices, Sunnyvale, Calif.) at an optical density (OD) of 490 nm. The percentage of cell survival as a function of drug concentration for both the assays was then plotted to determine the IC50 value, which stands for the drug concentration needed to prevent cell proliferation by 50%.
as §2, with “(CEM)” for “(CEM, CEMNLB100 and CEM/VM-1-5)”, “were” for “were cultured in RPMI-1640 media containing 10% FBS and then”, “increasing” for “increasing gradient”, “all halogenated analogs” for “9-nitro-nos”
(In general: Tetrazolium dyes change colour on reduction, which living cells bring about.)

In another data set the test system is CEM/VM-1-5 cells. As to conditions: CEM/VM-1-5 (Morgan et al., 2000); cited from earlier work.
For data set [6], the target named is T1, tubulin. The data set is described as follows: Tubulin binding assay (fluorescence titration, quenching of intrinsic tubulin fluorescence). Also on record: species or system mammalian. Conditions: 2 μM tubulin, 45 min at 37° C., double reciprocal plot; read-out: dissociation constant (Kd) for binding to tubulin. The procedure:
Fluorescence titration for determining the tubulin binding parameters was performed as described previously (Gupta and Panda, 2002). In brief, 9-nitro-nos (0-100 μM) was incubated with 2 μM tubulin in 25 mM PIPES, pH 6.8, 3 mM MgSO4 and 1 mM EGTA for 45 min at 37° C. The relative intrinsic fluorescence intensity of tubulin was then monitored in a JASCO FP-6500 spectrofluorometer (JASCO, Tokyo, Japan) using a cuvette of 0.3-cm path length, and the excitation wavelength was 295 nm. The fluorescence emission intensity of 9-nitro-nos at this excitation wavelength was negligible. A 0.3-cm path-length cuvette was used to minimize the inner filter effects caused by the absorbance of 9-nitro-nos at higher concentration ranges. In addition, the inner filter effects were corrected using a formula Fcorrected=Fobserved·antilog [(Aex+Aem)/2], where Aex is the absorbance at the excitation wavelength and Aem is the absorbance at the emission wavelength. The dissociation constant (Kd) was determined by the formula: 1/B=Kd/[free ligand]+1, where B is the fractional occupancy and [free ligand] is the concentration of free noscapine or 9-nitro-nos. The fractional occupancy (B) was determined by the formula B=ΔF/ΔFmax, where ΔF is the change in fluorescence intensity when tubulin and its ligand are in equilibrium and ΔFmax is the value of maximum fluorescence change when tubulin is completely bound with its ligand. ΔFmax was calculated by plotting 1/ΔF versus 1/ligand using total ligand concentration as the first estimate of free ligand concentration.
Fluorescence titration for determining the tubulin binding parameters was performed as described previously. In brief, 9-F-nos, 9-Cl-nos, 9-Br-nos or 9-I-nos (0-100 μM) was incubated with 2 μM tubulin in 25 mM PIPES, pH 6.8, 3 mM MgSO4, and 1 mM EGTA for 45 min at 37° C. The relative intrinsic fluorescence intensity of tubulin was then monitored in a JASCO FP-6500 spectrofluorometer (JASCO, Tokyo, Japan) using a cuvette of 0.3-cm path length, and the excitation wavelength was 295 nm. The fluorescence emission intensity of noscapine and its derivatives at this excitation wavelength was negligible. A 0.3-cm path-length cuvette was used to minimize the inner filter effects caused by the absorbance of these agents at higher concentration ranges. In addition, the inner filter effects were corrected using a formula F corrected=F observe·antilog [(Aex+Aem)/2], where Aex is the absorbance at the excitation wavelength and Aem is the absorbance at the emission wavelength. The dissociation constant (Kd) was determined by the formula: 1/B=Kd/[free ligand]+1, where B is the fractional occupancy and [free ligand] is the concentration of 9-F-nos, 9-Cl-nos, 9-Br-nos or 9-I-nos. The fractional occupancy (B) was determined by the formula B=ΔF/ΔFmax, where ΔF is the change in fluorescence intensity when tubulin and its ligand are in equilibrium and ΔFmax is the value of maximum fluorescence change when tubulin is completely bound with its ligand. ΔFmax was calculated by plotting 1/ΔF versus 1/[free ligand].

Data set [7] concerns MDA-MB-231 cells. Nature of the data set: DAPI staining, cell morphology by fluorescence microscopy. As to conditions: 25 μM, 72 hours. The format is cell-based, human. As to the method:
Cell morphology was evaluated by fluorescence microscopy following DAPI staining (Vectashield, Vector Labs, Inc., Burlingame, Calif.). MDA-MB-231 cells were grown on poly-L-lysine coated coverslips in 6-well plates and were treated with the halogenated analogs at 25 μM for 72 hours. After incubation, coverslips were fixed in cold methanol and washed with PBS, stained with DAPI, and mounted on slides. Images were captured using a BX60 microscope (Olympus, Tokyo, Japan) with an 8-bit camera (Dage-MTI, Michigan City, Ind.) and IP Lab software (Scanalytics, Fairfax, Va.). Apoptotic cells were identified by features characteristic of apoptosis (e.g. nuclear condensation, formation of membrane blebs and apoptotic bodies).

As a reminder, the IC50 is the concentration that inhibits the measured activity by half. A lower IC50 goes with greater potency in that assay. By Kd is commonly meant the constant that tells how readily two partners part at equilibrium.

Each structure is given as a SMILES string. Read-outs that look alike come from different tables or passages of the source.

Turning to `CC[C@]1(O)C[C@@H]2CN(CCc3c([nH]c4ccccc34)[C@@](C(=O)OC)(c3cc4c(cc3OC)N(C)[C@H]3[C@@](O)(C(=O)OC)[C@H](OC(C)=O)[C@]5(CC)C=CCN6CC[C@]43[C@@H]65)C2)C1` [vinblastine], in the data set with CEM/VLB100 cells, the resistance to vinblastine was 270 fold.

As to `COc1ccc2c(c1OC)C(=O)O[C@@H]2[C@H]1c2c(cc3c(c2OC)OCO3)CCN1C` [Nos, (S)-6,7-dimethoxy-3-((R)-4-methoxy-6-methyl-5,6,7,8-tetrahydro[1,3]-dioxolo-[4,5-g]isoquinolin-5-yl)isobenzo-furan-1(3H)-one, reference compound], the half-inhibitory concentration (IC50) amounted to 36.3 ± 1.8 µM with MDA-MB-231 cells [1], 39.6 ± 2.2 µM with MCF-7 cells [2] and 16.6 ± 2.4 µM in the data set with CEM cells. For the same compound, the G0/G1 in the data set with MCF-7 cells [3] (0 h) was 54.8 ± 0.03%; in the data set on MCF-7 cells [3] (24 h), 18.3 ± 3.3%; in the data set with MCF-7 cells [3] (48 h), 19.8 ± 1.9%; with MCF-7 cells [3] (72 h), 20.5 ± 0.2%. Besides, the G2/M stood at 29.9 ± 2.2% with MCF-7 cells [3] (0 h), 50.2 ± 3.6% with MCF-7 cells [3] (24 h), 28.07 ± 0.2% in the data set on MCF-7 cells [3] (48 h) and 26.3 ± 0.2% in the data set on MCF-7 cells [3] (72 h). For the same compound, the S in the data set on MCF-7 cells [3] (0 h) is 13.2 ± 0.2%; in the data set with MCF-7 cells [3] (24 h), 3.4 ± 0.8%; with MCF-7 cells [3] (48 h), 4.1 ± 0.6%; in the data set on MCF-7 cells [3] (72 h), 7.06 ± 0.2%. Also, the Sub-G1 in the data set on MCF-7 cells [3] (0 h) is recorded as 0.2 ± 0.03%; with MCF-7 cells [3] (24 h), 10.2 ± 1.2%; in the data set with MCF-7 cells [3] (48 h), 36.8 ± 3.7%; in the data set on MCF-7 cells [3] (72 h), 36.9 ± 0.2%. Also, at tubulin [4], the Kd was 144 ± 2.8 µM. In addition, the “microtubule polymerization upon binding tubulin” value with tubulin [5] is given as “does not significantly promote or inhibit microtubule polymerization”.

Consider `COc1cc([C@@H]2c3cc4c(cc3[C@@H](O[C@@H]3O[C@@H]5CO[C@@H](c6cccs6)O[C@H]5[C@H](O)[C@H]3O)[C@H]3COC(=O)[C@H]23)OCO4)cc(OC)c1O` [teniposide], for which the resistance to teniposide in the data set on CEM/VM-1-5 cells was 400 fold.

Regarding `COc1ccc2c(c1OC)C(=O)O[C@@H]2[C@H]1c2c(c(Br)c3c(c2OC)OCO3)CCN1C` [9-Br-nos, (S)-6,7-dimethoxy-3-((R)-4-methoxy-6-methyl-9-bromo-5,6,7,8-tetrahydro-[1,3]dioxolo[4,5-g]isoquinolin-5-yl)isobenzofuran-1(3H)-one], the IC50 amounted to 3.3 ± 0.4 µM with MDA-MB-231 cells [1], 1 ± 0.2 µM in the data set on MCF-7 cells [2] and 1.9 ± 0.2 µM in the data set on CEM cells. Besides, in the data set on MCF-7 cells [2] (MCF-7, ratio of IC50), the “fold higher cytotoxic activity than noscapine” value was roughly 40 fold. Also, the G0/G1 is given as 53.3 ± 2.8% in the data set with MCF-7 cells [3] (0 h), 10.4 ± 1.8% with MCF-7 cells [3] (24 h), 6.5 ± 2.5% in the data set on MCF-7 cells [3] (48 h) and 4.6 ± 2.1% in the data set on MCF-7 cells [3] (72 h). The G2/M in the data set with MCF-7 cells [3] (0 h) amounted to 28.9 ± 4.4%; in the data set on MCF-7 cells [3] (24 h), 61.9 ± 3.6%; with MCF-7 cells [3] (48 h) it was 43.8 ± 3.4%; in the data set with MCF-7 cells [3] (72 h), 33.7 ± 3.5%. Moreover, the S in the data set with MCF-7 cells [3] (0 h) turned out to be 12.7 ± 1.8%; in the data set with MCF-7 cells [3] (24 h), 3.4 ± 1.2%; in the data set on MCF-7 cells [3] (48 h), 2.8 ± 0.7%; in the data set with MCF-7 cells [3] (72 h), 2.4 ± 1.6%. Besides, the Sub-G1 with MCF-7 cells [3] (0 h) was 0.2 ± 0.1%; in the data set on MCF-7 cells [3] (24 h) it was 6.9 ± 2.4%; in the data set with MCF-7 cells [3] (48 h), 35.1 ± 3.5%; with MCF-7 cells [3] (72 h), 49.6 ± 2.7%. Besides, in the data set on MCF-7 cells [3] (MCF-7, lower doses (5 μM and 10 μM), 72 hours), the “percent sub-G1 cells compared with noscapine” value is “higher”. Besides, the dissociation constant (Kd) on tubulin [4] and at tubulin [6] was 54 ± 9.1 µM each time. In the data set with MDA-MB-231 cells [7], the “nuclear morphology (features of apoptotic cells), DAPI” value is “condensed chromosomes, numerous fragmented micronuclei, and apoptotic bodies are evident”.
